The source of these data is ChEMBL document CHEMBL1124222 (J Med Chem, 1988).

Assay [1] deals with T1, D(2) dopamine receptor (Rattus norvegicus, UniProt P61169). Kind of assay: Affinity constant of compound was evaluated in rat striatum tissue preparation. Format: tissue-based.
For assay [2], the target named is T1, D(2) dopamine receptor. Kind of assay: Inhibitory constant against binding of [125I]- IBZM to rat striatal membrane. Details: species or system Striatum.

T1 sequence (P61169 whole entry): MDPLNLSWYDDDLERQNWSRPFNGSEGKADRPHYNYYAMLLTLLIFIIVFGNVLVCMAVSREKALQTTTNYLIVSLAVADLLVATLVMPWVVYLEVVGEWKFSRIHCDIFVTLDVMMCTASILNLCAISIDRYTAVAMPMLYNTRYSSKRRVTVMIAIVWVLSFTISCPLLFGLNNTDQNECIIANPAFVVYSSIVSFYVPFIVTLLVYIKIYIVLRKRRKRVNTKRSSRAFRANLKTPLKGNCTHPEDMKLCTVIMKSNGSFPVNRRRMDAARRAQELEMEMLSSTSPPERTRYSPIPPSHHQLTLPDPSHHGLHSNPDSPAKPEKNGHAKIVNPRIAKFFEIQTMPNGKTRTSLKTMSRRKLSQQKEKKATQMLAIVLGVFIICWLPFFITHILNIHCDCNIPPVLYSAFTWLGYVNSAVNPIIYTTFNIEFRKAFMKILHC

As a reminder, the Ki is the dissociation constant of the complex between target and ligand, obtained from inhibition or displacement. A lower Ki goes with tighter binding. For `CCN1CCCC1CNC(=O)c1c(OC)ccc(I)c1O` (stereo unspecified), the Ki on D(2) dopamine receptor [1] worked out at 0.00043 µM.

`CCN1CCC[C@@H]1CNC(=O)c1c(OC)ccc(I)c1O` registered a Ki on D(2) dopamine receptor [2] of 0.0303 µM.

With `CCN1CCC[C@H]1CNC(=O)c1c(O)cccc1OC`, the Ki at D(2) dopamine receptor [1] and on D(2) dopamine receptor [2] was 0.0311 µM each time.

In the case of `CCN1CCC[C@H]1CNC(=O)c1c(OC)ccc(I)c1O` [IOLOPRIDE], on D(2) dopamine receptor [2], affinity was put at a Ki of 0.000633 µM. This counts as sub-nanomolar.

In turn, `O=C(c1ccc(F)cc1)C1CCN(CCn2c(=O)[nH]c3ccccc3c2=O)CC1` [KETANSERIN] displayed a Ki on D(2) dopamine receptor [2] of 0.359 µM. This Ki is about 570-fold higher than that of the compound before.
